Data: patent publication US9622984B1, “Synthesis of naringenin nanoparticles” (priority 2016, dated 2017)

Key:
[1] = test system: Nile tilapia (Oreochromis niloticus) exposed to 5 ppm CdCl2.H2O; assay: Cadmium concentration in tissues by atomic absorption spectrophotometer after 21 days exposure; format: in vivo; details: fish exposed to Cd only (5 ppm), control 205.4804±62.9 ng/g
Protocol: (§1) Experimental design was as follows. Adult Nile tilapia, Oreochromis niloticus (n=120 fish), with an average length of 20±4 cm and weight of 150 g-200 g were procured from the local fish farm near Riyadh City. They were checked thoroughly for injury and disease conditions. After washing with 0.01% KMnO4 solution for 15 min, they were divided into five groups each comprising 20 fish and kept in glass tanks (100 L capacity) with non-chlorinated tap water. Prior to the start of the experiment, the fish were acclimated to the food and laboratory conditions with 12 hr dark and 12 hr light cycles, pH range of 6 to 8 and temperature ranging from 20° C. to 24° C. for 15 days. The exposure period was 21 days. Through the entire experimental period the fish were fed commercial pelleted diet at 2% body weight.
(§2) The experimental groups were in replicates as follows. Group I was the negative control which contained dechlorinated tap water with no added CdCl2.H2O and without any antioxidant treatment (designated “Control” in FIGS. 9-10). […]
Cadmium concentration in tissues was determined as follows. […] The concentration of Cd in digested tissue samples were analyzed in an atomic absorption spectrophotometer.
Cadmium accumulation in liver was assessed as follows. […]

HSP70 = HSP70 levels in gills (ELISA kit) after 21 days exposure; format: in vivo, Oreochromis niloticus; details: fish exposed to Cd only (5 ppm), control 152.8800±11.81554 pg/g
Protocol: as §1, §2
Biochemical analysis was performed as follows. A quantitation of MDA levels in the liver (lipid peroxides) was done by a high performance liquid chromatographic (HPLC) method. […] The levels of hepatic metalothionein levels (MT-2) and HSP70 in […] were also assessed using commercial ELISA kits.
Heat shock protein (HSP70) in gills was determined as follows. […]

## O.[Cd+2].[Cl-].[Cl-] [Cd, CdCl2.H2O]
[1]
  Cd concentration in the liver: 1113.3320 ± 48.39 ng/g
HSP70
  HSP70 concentration in gills: 251.6600 ± 19.36 pg/g
